Experimental data taken from article PMC9672079, “Micro-PET imaging of hepatitis C virus NS3/4A protease activity using a protease-activatable retention probe” (Frontiers in Microbiology, 2022).
Square brackets hold non-standard residues; d marks the D form. Peptide text beside a SMILES is read from it. * marks the point of attachment. FITC = O=C1OC2(c3ccc(O)cc3Oc3cc(O)ccc32)c2ccc(NC(=S)*)cc21; Tyr(3-I) = N[C@@H](Cc1ccc(O)c(I)c1)C(=O)O

Key:
[1] = system: HCC36 cells; test: Specific retention of probe via flow cytometry; type: cell-based, Human; details: control HCC36 cells, 10 μM probe 1 h, washed three times per hour, 8 h
Procedure: (§1) We also used the WT probe (GRKKRRQRRR-[…]-LKKKYK-FITC) and the scrambled sequence probe (GRKKRRQRRR-[…]-LKKKYK) that could not be activated by protease as a control group to test the specific retention of probe via flow cytometry. HCC36 cells, NS3/4A-HCC36 cells, or JFH-1-infected HCC36 cells were incubated with 10 μM TAT-ΔNS3/4A-FITC or 10 μM TAT-scrambled NS3/4A-FITC in the absence or presence of 2 μM telaprevir (NS3/4A protease inhibitor) at 37 °C for 1 h. The cells were washed with DMEM containing 10% serum three times per hour. After culturing for 1 or 8 h, the fluorescence of viable cells was observed via flow cytometry.
(§2) Supplementary file Image_5.TIF: Supplementary Figure 5 To evaluate the specific retention of probe via flow cytometry, we used the WT probe (GRKKRRQRRR-[…]-LKKKYK-FITC) and the scrambled sequence probe (GRKKRRQRRR-[…]-LKKKYK) that could not be activated by protease as a control group to test the specific retention of probe via flow cytometry. HCC36 cells, NS3/4A-HCC36 cells, or JFH-1-infected HCC36 cells were incubated with 10 μM TAT-ΔNS3/4A-FITC or 10 μM TAT-scrambled NS3/4A-FITC in the absence or presence of 2 μM telaprevir (NS3/4A protease inhibitor) at 37°C for 1 h. The cells were washed with DMEM containing 10% serum three times per hour. After culturing for 1 or 8 h, the fluorescence of viable cells was observed via flow cytometry. Click here for additional data file.

[2] = system: JFH-1-infected HCC36 cells; test: Specific retention of probe via flow cytometry; type: cell-based, Human; details: 10 μM probe 1 h, washed three times per hour, 8 h
Procedure: as §1, §2

[3] = system: NS3/4A-HCC36 cells; test: Specific retention of probe via flow cytometry; type: cell-based, Human; details: 10 μM probe 1 h, washed three times per hour, 8 h
Procedure: as §1, §2

[4] = Blood kinetics (half-life) of TAT-ΔNS3/4A-124I-FITC in mice; set-up: species or system BALB/c nude mice; details: mouse, in vivo, iv, 3700 kBq; BALB/c mice, i.v., 4 h after injection, gamma-counter; read-out: radioactivity in the blood
Source text: BALB/c nude mice (n = 3) were intravenously injected with 3,700 kBq TAT-ΔNS3/4A-^124I-FITC, and blood samples were periodically removed from the tail vein of the mice. The blood was weighed on an analytical balance and assayed for radioactivity in a multichannel gamma-counter. The initial and terminal half-life of the probe was estimated by fitting the data to a two-phase exponential decay model with Prism 4 software (GraphPad Software, San Diego, CA, USA).
(§3) FIGURE 4 Specificity and half-life of TAT-ΔNS3/4A-^124I-FITC. (A) NS3/4A-HCC36 and HCC36 cells were incubated with 37 kBq of TAT-ΔNS3/4A-^124I-FITC in the presence or absence of 2 μM Telaprevir at 37°C for 1 h. The cells were washed with DMEM containing 10% serum three times per hour. The cells were collected by treatment with trypsin at the indicated times. The radioactivity of the cells was then measured with a gamma-counter. The CPM was normalized by protein concentration. […] Error bar: standard error of triplicate determinations.

[5] = system: NS3/4A-HCC36 and HCC36 tumors; test: Biodistribution in xenograft mice, gamma-counter; type: in vivo, BALB/c nude mice
Procedure: (§4) In xenograft model, BALB/c nude mice bearing established NS3/4A-HCC36 and HCC36 tumors (n = 3) were intravenously injected with 3,700 kBq (in 100 μL) TAT-ΔNS3/4A-^124I-FITC. In orthotopic model, SCID mice (n = 3) with NS3/4A-HCC36 or HCC36 tumors implanted in the liver were intravenously also injected with 3,700 kBq (in 100 μL) TAT-ΔNS3/4A-^124I-FITC. Animals were killed after anesthesia with pentobarbital (65 mg/kg) at 2, 4, and 6 h. Radioactivity in isolated tumors and tissues was measured with a multichannel gamma-counter. The biodistribution of the probe was expressed as percentage injected dose per gram of tissue (%ID/g).
FIGURE 6 Biodistribution of TAT-ΔNS3/4A-^124I-FITC in xenograft mice. Mice bearing established NS3/4A-HCC36 and HCC36 tumors were injected with 3,700 kBq of TAT-ΔNS3/4A-^124I-FITC. Selected organs and tumors were removed from the mice after 2 (white column), 4 (black column), and 6 (gray column) h. The radioactivity of individual organs was measured using a gamma-counter and normalized for sample weights. The biodistribution of TAT-ΔNS3/4A-^124I-FITC in selected organs was expressed as percentage injected dose/g tissue. Data represent mean ± SEM.

[6] = system: liver-implanted NS3/4A-HCC36 or HCC36 tumors; test: Micro-PET imaging in orthotopic liver implantation tumor model (ROI analysis); type: in vivo; details: SCID mice n = 3, i.v. 3,700 kBq, micro-PET 4 h
Source text: The orthotopic liver implantation model was generated as previously described ([Kim et al., 2009]). The NS3/4A-HCC36 tumors or HCC36 tumors from the ectopic tumors were harvested and transplanted into the left liver lobe of SCID mice (n = 3). After 2 weeks, the mice were feed the Lugol’s solution, and then, the 3,700 kBq of TAT-ΔNS3/4A-^124I-FITC was intravenously injected.
The mice were positioned in a micro-PET scanner (R4; Concorde Microsystems, Knoxville, Tenn) with their long axis parallel to the transaxial plane of the scanner. The scanner has a computer-controlled bed with a 10.8-cm transaxial and 8-cm axial field of view. It has no septa and operates exclusively in a three-dimensional list mode. All raw data were first sorted into three-dimensional sinograms, followed by Fourier rebinning and ordered-subsets expectation maximization image reconstruction. Fully three-dimensional list-mode data were collected by using an energy window of 350–750 keV and a time window of 6 nsec. […] The region of interest was analyzed with ASIPro VM version 5.0 (Concorde Microsystems, Knoxville, TN, USA) analysis software.
FIGURE 7 Micro-PET Imaging of NS3/4A activity in orthotopic liver implantation model. […] (B) The accumulation of radioactivity in NS3/4A-HCC36 tumors and HCC36 tumors was measured using a gamma-counter at 2 (white column), 4 (black column), and 6 (gray column) h after probe injection. […]

[7] = Long-term biodistribution in xenograft mice; type: in vivo; details: i.v. 3,700 kBq, gamma-counter
Procedure: Supplementary file Image_4.TIF: Supplementary Figure 4 Long-term biodistribution of TAT-ΔNS3/4A-^124I-FITC in xenograft mice. Mice were injected with 3,700 kBq of TAT-ΔNS3/4A-^124I-FITC. Selected organs and tumors were removed from the mice after 4, 12, and 24 h. The radioactivity of individual organs was measured using a gamma-counter and normalized for sample weights. The biodistribution of TAT-ΔNS3/4A-^124I-FITC in selected organs was expressed as percentage injected dose/g tissue. Data represent mean ± SEM. Click here for additional data file.

[8] = system: HCC36 cells; test: Cellular retention of radioactivity of TAT-ΔNS3/4A-124I-FITC, gamma-counter; type: cell-based, Human; details: control HCC36 cells, 37 kBq probe 37°C 1 h, cultured 0, 4, 6, 8 h with washing, CPM normalized by protein
Procedure: (§5) HCC36 or NS3/4A-HCC36 (1 × 10^5) cells were seeded with DMEM containing 10% serum in a 24-well plate at 37°C in a CO2 incubator overnight. The cells were incubated with 37 kBq of TAT-ΔNS3/4A-^124I-FITC in the presence or absence of 2 μM telaprevir (Vertex, Cambridge MA) at 37°C for 1 h. After probe staining, the cells were washed using DMEM containing 10% serum per 20 min until the end of the experiment. At different time points, the cells were collected by treatment with trypsin. The radioactivity of the cells was then measured using a gamma-counter. The CPM was normalized by protein concentration.
as §3

[9] = system: NS3/4A-HCC36 cells; test: as above; type: cell-based, Human
Procedure: as §5, §3

[10] = system: NS3/4A-HCC36 and HCC36 tumors; test: Micro-PET imaging of NS3/4A activity in xenograft mice (ROI analysis); type: in vivo, BALB/c nude mice; details: 6 h, n = 3
Procedure: BALB/c nude mice (n = 3) bearing established HCC36 and NS3/4A-HCC36 (100–200 mm^3) in their right and left hind leg, respectively, were anesthetized by halothane vapor with a vaporizer system. The mice were feed the Lugol’s solution and then intravenously injected with 3,700 kBq (in 100 μL) TAT-ΔNS3/4A-^124I-FITC. PET imaging was sequentially performed at 2, 4, and 6 h. To test the specificity of TAT-ΔNS3/4A-^124I-FITC, telaprevir (20 mg/kg/day for 3 days) or control vehicle was intraperitoneally injected into mice (n = 3) 3 days prior to TAT-ΔNS3/4A-^124I-FITC.
The mice were positioned in a micro-PET scanner (R4; Concorde Microsystems, Knoxville, Tenn) with their long axis parallel to the transaxial plane of the scanner. The scanner has a computer-controlled bed with a 10.8-cm transaxial and 8-cm axial field of view. It has no septa and operates exclusively in a three-dimensional list mode. All raw data were first sorted into three-dimensional sinograms, followed by Fourier rebinning and ordered-subsets expectation maximization image reconstruction. Fully three-dimensional list-mode data were collected by using an energy window of 350–750 keV and a time window of 6 nsec. Image pixel size was 0.85 mm transaxially, with a 1.21-mm section thickness. The region of interest was analyzed with ASIPro VM version 5.0 (Concorde Microsystems, Knoxville, TN, USA) analysis software. […]

[11] = system: liver-implanted NS3/4A-HCC36 or HCC36 tumors; test: Radioactivity of liver-implanted tumors, gamma-counter; type: in vivo, SCID mice; details: orthotopic liver model, i.v. 3,700 kBq, 6 h
Procedure: as §4
FIGURE 7 Micro-PET Imaging of NS3/4A activity in orthotopic liver implantation model. The NS3/4A-HCC36 tumors or HCC36 tumors from the ectopic tumors were harvested and transplanted into the left liver lobe of SCID mice (n = 3). After 2 weeks, the 3,700 kBq of TAT-ΔNS3/4A-^124I-FITC was intravenously injected. (A) PET imaging was performed at 4 h after injection of the probe. (B) The accumulation of radioactivity in NS3/4A-HCC36 tumors and HCC36 tumors was measured using a gamma-counter at 2 (white column), 4 (black column), and 6 (gray column) h after probe injection. Data represent mean ± SEM. Student’s t-test analysis of data. Statistical analysis was compared NS3/4A-HCC36 with HCC36. P < 0.05 was considered statistically significant.

What does the source list for “GRKKRRQRRR-ECEEEEESMDDDAH-LKKKYK [scrambled sequence probe]”?
fluorescence retention after culturing for 8 h [1]: cannot be accumulated in each cell; fluorescence retention after culturing for 8 h [2]: cannot be accumulated in each cell; fluorescence retention after culturing for 8 h [3]: cannot be accumulated in each cell

Which results are given for `CSCC[C@H](NC(=O)[C@H](CCC(=O)O)NC(=O)[C@H](CC(=O)O)NC(=O)[C@H](CCC(=O)O)NC(=O)[C@H](CC(=O)O)NC(=O)[C@H](CCC(=O)O)NC(=O)[C@H](CC(=O)O)NC(=O)[C@H](CCC(=O)O)NC(=O)[C@H](CC(=O)O)NC(=O)[C@H](CCCNC(=N)N)NC(=O)[C@H](CCCNC(=N)N)NC(=O)[C@H](CCCNC(=N)N)NC(=O)[C@H](CCC(N)=O)NC(=O)[C@H](CCCNC(=N)N)NC(=O)[C@H](CCCNC(=N)N)NC(=O)[C@H](CCCCN)NC(=O)[C@H](CCCCN)NC(=O)[C@H](CCCNC(=N)N)NC(=O)CN)C(=O)N[C@@H](CCC(=O)O)C(=O)N[C@@H](CCC(=O)O)C(=O)N[C@@H](CS)C(=O)N[C@@H](C)C(=O)N[C@@H](CO)C(=O)N[C@@H](Cc1c[nH]cn1)C(=O)N[C@@H](CC(C)C)C(=O)N[C@@H](CCCCN)C(=O)N[C@@H](CCCCN)C(=O)N[C@@H](CCCCN)C(=O)N[C@@H](Cc1ccc(O)c(I)c1)C(=O)N[C@@H](CCCCNC(=S)Nc1ccc2c(c1)C(=O)OC21c2ccc(O)cc2Oc2cc(O)ccc21)C(=O)O` [TAT-ΔNS3/4A-^124I-FITC] (H-GRKKRRQRRRDEDEDEDEMEECASHLKKK[Tyr(3-I)]K(FITC)-OH; N-terminus and C-terminus assumed)?
tissue uptake at 4 h [4]: 2.6 ± 0.1 %ID/g; radioactivity in normal organs (stomach, kidneys) ([5]; i.v. 3,700 kBq, 2, 4, 6 h): high levels of radioactivity were observed in the stomach and kidneys; accumulation of radioactivity, NS3/4A-HCC36 tumors vs HCC36 tumors ([5]; i.v. 3,700 kBq, 6 h, %ID/g, n = 3): 2.7 fold; ROI, implanted NS3/4A-HCC36 tumors vs HCC36 tumors [6]: 4.75 fold; radioactivity in tissues at 24 h ([7]; 24 h): did not accumulate in the all of tissues at 24 h; long-term accumulation of probe in kidney (and stomach) ([7]; organs at 4, 12, 24 h): accumulation of probe in kidney and in stomach would quickly reduce at 12 and 24 h; radioactivity retained in the cells [8]: not in control HCC36 cells; radioactivity retained in the cells ([9]; 37 kBq probe 37°C 1 h, cultured 0, 4, 6, 8 h with washing, CPM normalized by protein): A high level of radioactivity was detected; radioactivity retained in the cells after inhibitor treatment ([9]; 37 kBq probe + 2 μM telaprevir): radioactivity did not accumulate; ROI radioactivity, NS3/4A-HCC36 tumors vs HCC36 tumors ([10]; i.v. 3,700 kBq): 2.53 fold; ROI radioactivity, NS3/4A-HCC36 tumors vs HCC36 tumors, after inhibitor treatment ([10]; telaprevir 20 mg/kg/day i.p. for 3 days before probe): 1.31 fold; uptake of radioactivity, implanted NS3/4A-HCC36 tumors vs implanted HCC36 tumors [11]: 3.1 fold
